From patent US12459922B2 (Gilead Sciences, Inc., priority 2022, dated 2025)

These compounds were tested on endogenous cellular STAT1 (phosphorylated at Tyr701) in NCI-H1373 cells (assay: Phospho-STAT1 (Tyr701) LANCE Ultra TR-FRET Detection Assay). Details: Homo sapiens, NCI-H1373, 48 h, phospho-STAT1 (Tyr701) induction, read-out: NH1373 pSTAT1 EC50.
Format: cell-based

First: CC(CCCn1ccc2cc(-c3ncc(C(F)(F)F)cn3)c(F)cc2c1=O)Oc1cn[nH]c(=O)c1C(F)(F)F (centres unmarked) [Example 136, 7-fluoro-2-[4-[[6-oxo-5-(trifluoromethyl)-1H-pyridazin-4-yl]oxy]pentyl]-6-[5-(trifluoromethyl)pyrimidin-2-yl]isoquinolin-1-one]
Second: C[C@H](Nc1cn[nH]c(=O)c1C(F)(F)F)[C@@H](O)CCn1ccc2cc(-c3ncc(C(F)(F)F)cn3)c(F)cc2c1=O [Example 442, 7-fluoro-2-((3S,4S)-3-hydroxy-4-((6-oxo-5-(trifluoromethyl)-1,6-dihydropyridazin-4-yl)amino)pentyl)-6-(5-(trifluoromethyl)pyrimidin-2-yl)isoquinolin-1(2H)-one]
The EC50 of the first is 24-fold lower: 75.9 nM for the first, 1850 nM for the second.

First: CC(C)(CCCn1ccc2cc(-c3ncc(C(F)(F)F)c(N)n3)c(F)cc2c1=O)Nc1cn[nH]c(=O)c1C(F)(F)F [Example 137, 6-(4-amino-5-(trifluoromethyl)pyrimidin-2-yl)-7-fluoro-2-(4-methyl-4-((6-oxo-5-(trifluoromethyl)-1,6-dihydropyridazin-4-yl)amino)pentyl)isoquinolin-1(2H)-one]
Second: Nc1nc(-c2cc3ccn(CCC[C@H](CCOC(F)F)Nc4cn[nH]c(=O)c4C(F)(F)F)c(=O)c3cc2F)ncc1C(F)(F)F [Example 467, 6-[4-amino-5-(trifluoromethyl)pyrimidin-2-yl]-2-[(4R)-6-(difluoromethoxy)-4-[[6-oxo-5-(trifluoromethyl)-1H-pyridazin-4-yl]amino]hexyl]-7-fluoro-isoquinolin-1-one]
The EC50 of the first is 12-fold higher: 50.6 nM for the first, 4.13 nM for the second.

First: COc1ncc(-c2cc3ccn(CCC[C@H](COC(F)F)Nc4cn[nH]c(=O)c4C(F)(F)F)c(=O)c3cc2F)nc1N [Example 415, (R)-6-(6-amino-5-methoxypyrazin-2-yl)-2-(5-(difluoromethoxy)-4-((6-oxo-5-(trifluoromethyl)-1,6-dihydropyridazin-4-yl)amino)pentyl)-7-fluoroisoquinolin-1(2H)-one]
Second: Nc1nc(-c2cc3ccn(CCC[C@H](COC(F)F)Nc4cn[nH]c(=O)c4C(F)(F)F)c(=O)c3cc2F)ccc1Cl [Example 410, (R)-6-(6-amino-5-chloropyridin-2-yl)-2-(5-(difluoromethoxy)-4-((6-oxo-5-(trifluoromethyl)-1,6-dihydropyridazin-4-yl)amino)pentyl)-7-fluoroisoquinolin-1(2H)-one]
The EC50 of the first is 2.5-fold higher: 2.49 nM for the first, 0.99 nM for the second.

Going from `C[C@@H](CCCn1ccc2cc(-c3ncc(Cl)c(N)n3)c(F)c(F)c2c1=O)Nc1cn[nH]c(=O)c1C(F)(F)F` [Example 341, (S)-6-(4-amino-5-chloropyrimidin-2-yl)-7,8-difluoro-2-(4-((6-oxo-5-(trifluoromethyl)-1,6-dihydropyridazin-4-yl)amino)pentyl)isoquinolin-1(2H)-one] to `Cc1cnc(-c2cc3ccn(CCC[C@H](C)Nc4cn[nH]c(=O)c4C(F)(F)F)c(=O)c3c(F)c2F)nc1N` [Example 77, (S)-6-(4-amino-5-methylpyrimidin-2-yl)-7,8-difluoro-2-(4-((6-oxo-5-(trifluoromethyl)-1,6-dihydropyridazin-4-yl)amino)pentyl)isoquinolin-1(2H)-one], the EC50 rises from 1.95 nM to 13.5 nM (6.9-fold). The first is the more potent here.

Compared with `O=c1[nH]ncc(N[C@H](CCCn2ccc3cc(-c4ncc(C(F)(F)F)cn4)c(F)cc3c2=O)CCOC(F)F)c1C(F)(F)F` [Example 466, 2-[(4R)-6-(difluoromethoxy)-4-[[6-oxo-5-(trifluoromethyl)-1H-pyridazin-4-yl]amino]hexyl]-7-fluoro-6-[5-(trifluoromethyl)pyrimidin-2-yl]isoquinolin-1-one], `O=c1[nH]ncc(N[C@H](CCCn2ccc3cc(-c4ncc(C(F)(F)F)cn4)c(F)c(F)c3c2=O)COC(F)F)c1C(F)(F)F` [Example 375, (R)-2-(5-(difluoromethoxy)-4-((6-oxo-5-(trifluoromethyl)-1,6-dihydropyridazin-4-yl)amino)pentyl)-7,8-difluoro-6-(5-(trifluoromethyl)pyrimidin-2-yl)isoquinolin-1(2H)-one] is 1.7-fold lower in EC50: 6.52 nM for the first, 3.84 nM for the second. The second is the more potent here.

`[2H][C@@](C)(CCCn1ccc2cc(-c3ncc(C(F)(F)F)cn3)c(F)c(F)c2c1=O)Nc1cn[nH]c(=O)c1C(F)(F)F` (single isomer, unassigned) [Example 86] and `Nc1nc(-c2cc3ccn(CCC[C@H](COC(F)F)Nc4cn[nH]c(=O)c4C(F)(F)F)c(=O)c3c(F)c2F)ncc1Cl` [Example 391, (R)-6-(4-amino-5-chloropyrimidin-2-yl)-2-(5-(difluoromethoxy)-4-((6-oxo-5-(trifluoromethyl)-1,6-dihydropyridazin-4-yl)amino)pentyl)-7,8-difluoroisoquinolin-1(2H)-one] are within 1.5-fold of each other in EC50: 9.21 nM for the first, 6.3 nM for the second.

Going from `O=c1[nH]ncc(N[C@H]2CCC[C@@H](Cn3cnc4cc(-c5nc6ccccn6n5)c(F)cc4c3=O)C2)c1C(F)(F)F` [Example 487] to `O=c1[nH]ncc(N[C@H]2CCC[C@@H](Cn3ccc4cc(-c5ncc(C(F)(F)F)cn5)cc(F)c4c3=O)C2)c1C(F)(F)F` [Example 285, 8-fluoro-2-(((1R,3S)-3-((6-oxo-5-(trifluoromethyl)-1,6-dihydropyridazin-4-yl)amino)cyclohexyl)methyl)-6-(5-(trifluoromethyl)pyrimidin-2-yl)isoquinolin-1(2H)-one], the EC50 rises from 0.51 nM to 78.7 nM (150-fold).

Compared with `COc1cnc(-c2cc3ccn(CCC[C@H](C)Nc4cn[nH]c(=O)c4C(F)(F)F)c(=O)c3cc2F)nc1NCC(F)F` [Example 158, 6-[4-(2,2-difluoroethylamino)-5-methoxy-pyrimidin-2-yl]-7-fluoro-2-[(4S)-4-[[6-oxo-5-(trifluoromethyl)-1H-pyridazin-4-yl]amino]pentyl]isoquinolin-1-one], `C[C@@H](CCCn1ccc2cc(-c3ncc(C(F)F)c(NC4CC4)n3)c(F)cc2c1=O)Nc1cn[nH]c(=O)c1C(F)(F)F` [Example 221, (S)-6-(4-(cyclopropylamino)-5-(difluoromethyl)pyrimidin-2-yl)-7-fluoro-2-(4-((6-oxo-5-(trifluoromethyl)-1,6-dihydropyridazin-4-yl)amino)pentyl)isoquinolin-1(2H)-one] is 7.1-fold lower in EC50: 109 nM for the first, 15.3 nM for the second.

First: Nc1nc(-c2cc3ccn(C[C@@H]4CCC[C@H](Nc5cn[nH]c(=O)c5C(F)(F)F)C4)c(=O)c3c(F)c2F)ncc1OC(F)F [Example 245, 6-(4-amino-5-(difluoromethoxy)pyrimidin-2-yl)-7,8-difluoro-2-(((1R,3S)-3-((6-oxo-5-(trifluoromethyl)-1,6-dihydropyridazin-4-yl)amino)cyclohexyl)methyl)isoquinolin-1(2H)-one]
Second: CC[C@@H](CCCn1ccc2cc(-c3ncc(C(F)F)c(N)n3)c(F)cc2c1=O)Nc1cn[nH]c(=O)c1C(F)(F)F [Example 297, (S)-6-(4-amino-5-(difluoromethyl)pyrimidin-2-yl)-7-fluoro-2-(4-((6-oxo-5-(trifluoromethyl)-1,6-dihydropyridazin-4-yl)amino)hexyl)isoquinolin-1(2H)-one]
The EC50 of the first is 2.2-fold higher: 8.13 nM for the first, 3.71 nM for the second. The second is the more potent here.

Compared with `CC[C@@H](CCCn1cnc2cc(-c3ncc(C(F)F)c(N)n3)c(F)cc2c1=O)Nc1cn[nH]c(=O)c1C(F)(F)F` [Example 320, (S)-7-(4-amino-5-(difluoromethyl)pyrimidin-2-yl)-6-fluoro-3-(4-((6-oxo-5-(trifluoromethyl)-1,6-dihydropyridazin-4-yl)amino)hexyl)quinazolin-4(3H)-one], `CC[C@@H](CCCn1cnc2cc(-c3ncc(Cl)c(N)n3)c(F)cc2c1=O)Nc1cn[nH]c(=O)c1C(F)(F)F` [Example 342, (S)-7-(4-amino-5-chloropyrimidin-2-yl)-6-fluoro-3-(4-((6-oxo-5-(trifluoromethyl)-1,6-dihydropyridazin-4-yl)amino)hexyl)quinazolin-4(3H)-one] is 3.2-fold lower in EC50: 31.2 nM for the first, 9.84 nM for the second. The second is the more potent here.

Compared with `CCNc1nc(-c2cc3ncn(CCC[C@H](C)Nc4cn[nH]c(=O)c4C(F)(F)F)c(=O)c3cc2F)ncc1C(F)(F)F` [Example 117, 7-[4-(ethylamino)-5-(trifluoromethyl)pyrimidin-2-yl]-6-fluoro-3-[(4S)-4-[[6-oxo-5-(trifluoromethyl)-1H-pyridazin-4-yl]amino]pentyl]quinazolin-4-one], `C[C@@H](CCCn1cnc2cc(-c3ncc(S(C)(=O)=O)cn3)c(F)cc2c1=O)Nc1cn[nH]c(=O)c1C(F)(F)F` [Example 126, (S)-6-fluoro-7-(5-(methylsulfonyl)pyrimidin-2-yl)-3-(4-((6-oxo-5-(trifluoromethyl)-1,6-dihydropyridazin-4-yl)amino)pentyl)quinazolin-4(3H)-one] is 250-fold higher in EC50: 5.21 nM for the first, 1290 nM for the second.

Compared with `O=c1[nH]ncc(N[C@H](CCCn2cnc3cc(-c4cnc(C(F)(F)F)cn4)c(F)cc3c2=O)COC(F)F)c1C(F)(F)F` [Example 420, (R)-3-(5-(difluoromethoxy)-4-((6-oxo-5-(trifluoromethyl)-1,6-dihydropyridazin-4-yl)amino)pentyl)-6-fluoro-7-(5-(trifluoromethyl)pyrazin-2-yl)quinazolin-4(3H)-one], `Nc1nc(-c2cc3ccn(CCC[C@H](COC(F)F)Nc4cn[nH]c(=O)c4C(F)(F)F)c(=O)c3cc2F)ccc1F` [Example 409, (R)-6-(6-amino-5-fluoropyridin-2-yl)-2-(5-(difluoromethoxy)-4-((6-oxo-5-(trifluoromethyl)-1,6-dihydropyridazin-4-yl)amino)pentyl)-7-fluoroisoquinolin-1(2H)-one] is 2.1-fold lower in EC50: 9.41 nM for the first, 4.49 nM for the second. The second is the more potent here.

Compared with `C[C@@H](CCCn1ccc2cc(-c3nc(N)c4ccccc4n3)c(F)cc2c1=O)Nc1cn[nH]c(=O)c1C(F)(F)F` [Example 363, (S)-6-(4-aminoquinazolin-2-yl)-7-fluoro-2-(4-((6-oxo-5-(trifluoromethyl)-1,6-dihydropyridazin-4-yl)amino)pentyl)isoquinolin-1(2H)-one], `C[C@@H](CCCn1ccc2cc(-c3ncc(OCCO)cn3)c(F)cc2c1=O)Nc1cn[nH]c(=O)c1C(F)(F)F` [Example 129, (S)-7-fluoro-6-(5-(2-hydroxyethoxy)pyrimidin-2-yl)-2-(4-((6-oxo-5-(trifluoromethyl)-1,6-dihydropyridazin-4-yl)amino)pentyl)isoquinolin-1(2H)-one] is 24-fold higher in EC50: 3.28 nM for the first, 77.8 nM for the second.
